Data taken from PubChem BioAssay AID179 (DTP/NCI, 2004).
Active and inactive are the calls of the source.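 The calls were made as follows: active = compounds giving half or more protection of infected cells from virus-caused growth loss, again on retest; inactive = the rest.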 Where a SMILES comes first, the peptide text is derived from it.

System: CEM cells HIV-1 protection, formazan growth assay
Assay: NCI AIDS Antiviral Assay
Conditions: for IC50: measured here: growth of uninfected CEM cells
Summary of the method: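 Steps: treat uninfected and HIV-1-infected human CEM cells at five drug levels; quantify growth by soluble formazan; retest any compound reaching 50% protection; classify actives from the retest.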

| Structure (SMILES) | EC50 | IC50 | outcome |
| --- | --- | --- | --- |
| CC(=O)OCC1OC(Sc2nc(-c3ccccc3)c(C#N)c(=O)n2C2OC(COC(C)=O)C(OC(C)=O)C(OC(C)=O)C2OC(C)=O)C(OC(C)=O)C(OC(C)=O)C1OC(C)=O (stereo unspecified) | > 151 µM | 19.5 µM |  |
| N#Cc1nc(C(F)(F)F)oc1N |  |  | inactive |
| COc1cc2c(cc1OC)C1(c3ccc(Cl)cc3)ON=C(c3ccccc3)N1CS2 (stereo unspecified) | > 6.17 µM | > 6.17 µM |  |
| CC1CCC2(CC1)NC1=C(CC(C)CC1)C1=C2CC(C)CC1 (stereo unspecified) | > 200 µM | 35.5 µM |  |
| Cc1cc(O)c(C=NC(=S)C(N)=S)c(=O)o1 | > 200 µM | 41.7 µM |  |
| CCC(C)C(NC(=O)C(N)CCCCN)C(=O)NC(CCC(N)=O)C(=O)NC(CO)C(=O)NC(C(=O)O)C(C)O (stereo unspecified) (H-KIQST-OH; configuration not given here) | > 115 µM | > 115 µM |  |
| COc1ccc2nc3c(nc2c1)C(C)(C)C=C3c1ccc(Br)cc1 | > 100 µM | > 100 µM |  |
| O=C(Nc1ccc(C2=NCCCN2)cc1)c1ccc(NC(=O)c2ccc(C3=NCCCN3)cc2)cc1 | > 200 µM | 67.6 µM |  |
| CC[C@@H]1C[C@@H]2CN3CCc4c([nH]c5ccc(OC)cc45)C(COC(=O)c4ccc(OC)c(OC)c4)(C2)C13 |  |  | inactive |
| O=C(NN1C(=O)C=CC1=O)c1ccccc1Nc1ccccc1C(=O)NN1C(=O)C=CC1=O | 63.1 µM | 191 µM |  |
| Cc1ccc(-c2c3nc(c(-c4ccc(C)cc4)c4ccc([nH]4)c(-c4ccc(OCC5COC(C)(C)O5)cc4)c4nc(c(-c5ccc(C)cc5)c5ccc2[nH]5)C=C4)C=C3)cc1 (stereo unspecified) | > 100 µM | > 100 µM |  |
| O=C1CCC2(c3ccccc3)Nc3ccccc3N12 (stereo unspecified) | > 200 µM | 126 µM |  |
| CC(=O)OCC1OC(Nc2[nH]c(=O)[nH]c(=O)c2N=O)C(OC(C)=O)C(OC(C)=O)C1OC(C)=O (stereo unspecified) | > 200 µM | > 200 µM |  |
| CC1CCN(Cc2cccnc2)CC1 |  |  | inactive |
| C/C=C/C=C\C(=O)C1c2cccc(O)c2C(=O)c2c(O)cc(C)cc21 (stereo unspecified) | > 21.4 µM | 3.89 µM |  |
| Clc1ccc(-c2c(C3=NCCCN3)nnn2-c2ccc(Cl)cc2)cc1 | > 490 µM | 30.9 µM |  |
| CC(=O)OCC(OC(C)=O)C(OC(C)=O)C(/C=N\Nc1nc2ccccc2c(=O)[nH]1)OC(C)=O (stereo unspecified) | > 200 µM | > 200 µM |  |
| CN(C)P(CCP(C)C)N(C)C | > 174 µM | > 174 µM |  |
| C=CCOC(C)n1c(C)c(Br)c(=O)[nH]c1=O (stereo unspecified) |  | > 200 µM | inactive |
| O=S(=O)(SS(=O)(=O)c1ccccc1)c1ccccc1 | > 115 µM | > 115 µM |  |
| Cc1cc(C)nc(NS(=O)(=O)c2ccc(NNc3c4ccccc4nc4c(C(=O)Nc5ccc(S(=O)(=O)Nc6ncccn6)cc5)cccc34)cc2)n1 | > 200 µM | 29.5 µM |  |
| Cc1cn(C2CCC(=O)C2)c(=O)[nH]c1=O (stereo unspecified) |  |  | inactive |

| Structure (SMILES) | EC50 | IC50 | outcome |
| --- | --- | --- | --- |
| Cc1nc2c(c(N3CCN(C)CC3)n1)Cc1ccccc1-2 | > 200 µM | 41.7 µM |  |
| O=C(C[n+]1ccccc1Br)c1ccc2ccccc2c1 | > 200 µM | 9.55 µM |  |
| C=CCC12CC(=O)CCC1c1ccc(OC)cc1C2=O (stereo unspecified) | > 251 µM | 141 µM |  |
| Clc1nc(NC23CC4CC(CC(C4)C2)C3)nc(NC23CC4CC(CC(C4)C2)C3)n1 | > 200 µM | 52.5 µM |  |
| CC1OC(Oc2c(-c3cc(O)c(O)c(O)c3)oc3cc(O)cc(O)c3c2=O)C(O)C(O)C1O (stereo unspecified) |  |  | inactive |
| CC1(C)Oc2ccc3ccc(=S)oc3c2[C@@H](OC(=O)C23CCC(C)(C(=O)O2)C3(C)C)[C@H]1OC(=O)C12CCC(C)(C(=O)O1)C2(C)C (stereo partly specified) | 0.525 µM | 5.62 µM |  |
| CCc1[nH]nc(-c2ccc(OC)cc2)c1-c1ccccc1O | > 200 µM | 20.9 µM |  |
| CC(=O)CC(C)=O.CC(=O)CC(C)=O.CC(=O)CC(C)=O.[Mn] | > 200 µM | 25.7 µM |  |
| CC1C=CC(O)[C@]2(CO)CC3(CCC12)OCCO3 (stereo partly specified) |  |  | inactive |
| NC(=O)NCNC(N)=O | > 676 µM | > 676 µM |  |
| CN(N)c1ncnc2c1cnn2C | > 209 µM | > 209 µM |  |
| Cc1nc2c(sc(=S)n2-c2ccccc2)c2nc3ccccc3n12 | > 2.09 µM | > 2.09 µM |  |
| Cn1c(=O)nc2n(-c3cc(Cl)ccc3Cl)c3ccccc3nc-2c1=O |  |  | inactive |
| CC1=C(C(=O)Nc2ccccc2C)C(c2ccccc2O)C(C(=O)Nc2ccccc2C)=C(C)N1 | 9.55 µM | 15.5 µM |  |
| COc1ccc(C2Oc3ccc(Cl)cc3C=C2[N+](=O)[O-])cc1OC (stereo unspecified) | > 2 µM | 0.724 µM |  |
| O=C1C=CC(=O)c2c1ccc1c3ccccc3n(Cc3cccc([N+](=O)[O-])c3)c21 | > 200 µM | 1.35 µM |  |
| CCOC(=O)c1[nH]cnc1/N=N/N(C)N | > 200 µM | 21.4 µM |  |
| c1ccc(CN(Cc2ccccn2)Cc2ccccn2)nc1 | > 200 µM | 3.16 µM |  |
| COC(=O)C1Cc2c([nH]c3ccccc23)C(C2CCCCC2)N1 (stereo unspecified) |  |  | inactive |
| Cn1c(=O)ccc2c1nc1ccccc1[n+]2[O-] | > 60.3 µM | > 60.3 µM |  |
| CC(C)(C)OC(=O)[C@@H]1CCC(=S)N1Cc1ccccc1 | > 200 µM | 135 µM |  |
| CCOC(=O)C(OP(=O)(OCC)OCC)C(F)(F)F (stereo unspecified) | > 200 µM | > 200 µM |  |

| Structure (SMILES) | EC50 | IC50 | outcome |
| --- | --- | --- | --- |
| CCOC(=O)C(NC(=O)c1ccccc1)[CH](C)[Sn]([c]1ccccc1)([c]1ccccc1)[c]1ccccc1 (stereo unspecified) | > 200 µM | 13.5 µM |  |
| Cc1coc2c1[C@@H](O)[C@]1(C)[C@@H](C)CC[C@H](O)[C@]1(O)C2 | > 200 µM | > 200 µM |  |
| CN(C)CCC(/C=C/c1ccccc1)=N\Nc1c(F)c(F)c(F)c(F)c1F |  |  | inactive |
| CC[C@@H]1CC2CN3CCc4c([nH]c5cc(OC)ccc45)C(C(=O)OC)(C2)C13 (stereo partly specified) |  |  | inactive |
| C=C1C(=O)OC2C1CCC(C)C1C=CC(=O)C12C (stereo unspecified) | > 200 µM | 1.07 µM |  |
| CC(CN(C)C)Sc1nnc(SC(C)CN(C)C)s1 (stereo unspecified) |  |  | inactive |
| CCOc1ccc(N)c(S)c1 | > 200 µM | 26.9 µM |  |
| O=P(O)(O)C=C=C1CCCCC1 | > 200 µM | > 200 µM |  |
| C=CC1CN(C(=O)OCC)N(C(=O)OCC)C1CCc1ccccc1 (stereo unspecified) | > 200 µM | 72.4 µM |  |
| COC(=O)OCC1C=CC(n2cnc3c(Cl)nc(N)nc32)CC1 (stereo unspecified) | > 200 µM | 31.6 µM |  |
| O=C(NN1C(=O)C(Cl)C1c1ccccc1O)c1ccccc1O (stereo unspecified) | > 56.2 µM | 8.32 µM |  |
| CC(=O)C1CCC2[C@@H]3CCC4c5nn(-c6ccccc6)nc5CC[C@]4(C)C3CC[C@]12C (stereo partly specified) |  |  | inactive |
| O=C(O)COc1ccc(C(=O)/C(SS/C(C(=O)c2ccc(OCC(=O)O)c(Cl)c2Cl)=C2\C=C(c3ccc(F)cc3)SS2)=C2/C=C(c3ccc(F)cc3)SS2)c(Cl)c1Cl | > 37.2 µM | > 37.2 µM |  |
| O=c1cn[nH]c2ccc(Br)cc12 | > 95.5 µM | > 95.5 µM |  |
| CN1CCCS/C1=C1/SC(=S)N(c2ccccc2)C1=O | > 30.9 µM | > 30.9 µM |  |
| COc1ccc(NC(=O)/C(=C/N2C(=O)/C(=C/c3ccc(OC)c(OC)c3)NC2=S)C(C)=O)cc1 | > 200 µM | 23.4 µM |  |
| Cc1cccc(/C=C2\CCCc3ccccc3C2=O)c1 | > 200 µM | 11.2 µM |  |
| O=C1c2ccccc2C(=O)N1N1CC1c1ccccc1 (stereo unspecified) | > 200 µM | 138 µM |  |
| [CH2+][B-]1(C)n2ccc[n+]2[B-](C)(C)[n+]2cccn21 | > 200 µM | > 100 µM |  |
| Cc1cc(O)c(/C=N/C(=S)Nc2ccc(S(N)(=O)=O)cc2)c(=O)o1 | > 200 µM | > 200 µM |  |
| O=C(c1ccccc1)N1C(=O)c2ccccc21 | > 162 µM | 49 µM |  |
| COc1cc(CC2C(=O)NC(=O)NC2=O)ccc1OCc1ccccc1 |  |  | inactive |

| Structure (SMILES) | EC50 | IC50 | outcome |
| --- | --- | --- | --- |
| Nc1ccc2nc(NCc3ccc(F)cc3)cnc2c1 | > 933 µM | 83.2 µM |  |
| CCCCOC(=O)NC(Nc1ccc(S(N)(=O)=O)cc1)(C(F)(F)F)C(F)(F)F | > 200 µM | > 200 µM |  |
| CCCc1cc(=O)oc2c3c(c4c(c12)OC(C)(C)CC4)O[C@H](C)[C@H](C)C3=O | > 30.2 µM | 13.2 µM |  |
| CCc1ccccc1N1CCN(C(=O)c2cc(OC)c(OC)c(OC)c2)CC1 | > 93.3 µM | 0.0295 µM |  |
| C[C@@]1(O)C2/C(=N/O)C3CC1(c1ccccc1)CC(/C3=N/O)C2c1ccccc1 (stereo partly specified) | > 100 µM | > 100 µM |  |
| Fc1ccc(F)c(C2SCc3nc4ccccc4n32)c1 (stereo unspecified) |  |  | inactive |
| COc1ccc(C2(CC(C)O)SCCCS2)cc1 (stereo unspecified) | > 200 µM | 115 µM |  |
| Cc1cc(C)cc(Nc2cc(=O)[nH]c(=O)[nH]2)c1 | > 200 µM | > 200 µM |  |
| C[n+]1c(/C=C/c2ccc(/C=N/NC(=O)c3ccc(C(=O)N/N=C/c4ccc(/C=C/c5cn6ccccc6[n+]5C)cc4)cc3)cc2)cn2ccccc21 | > 3.55 µM | > 3.55 µM |  |
| CCCNC(=O)Sc1ccccc1C(=O)N[C@@H](C)C(N)=O | > 4.17 µM | 1.41 µM |  |
| CC1(c2cccc3c2C2(O)C=CC4(CCC32)OCCO4)OCCO1 (stereo unspecified) | 123 µM | 174 µM |  |
| COC1(OC)CC2C(=O)N(Cc3ccccc3)C1C(S(=O)(=O)c1ccccc1)C2S(=O)(=O)c1ccccc1 (stereo unspecified) |  |  | inactive |
| CCOC(=O)C1=C(O)c2c(sc(C)c2-c2ccccc2)N(S(=O)(=O)c2ccc(C)cc2)CC1 | > 100 µM | 4.79 µM |  |
| CC(=O)O[C@H]1CC[C@@]2(C)C(=CC[C@@H]3C2CC[C@@]2(C)C3CC[C@@H]2c2ncc(C)s2)C1 (stereo partly specified) | > 60.3 µM | > 60.3 µM |  |
| Cc1ccc(-c2n[nH]c(CC#N)n2)cc1 | > 200 µM | > 200 µM |  |
| O=C(CCN1CCC(CCO)CC1)Nc1ccc2c(c1)C(=O)c1ccc(NC(=O)CCN3CCC(CCO)CC3)cc1C2=O | > 200 µM | 43.7 µM |  |
| CCCCCCCOc1ccc(/C=C\c2cc[n+](CCCCCCCC[n+]3ccc(/C=C\c4ccc(OCCCCCCC)cc4)cc3)cc2)cc1 | > 6.46 µM | > 6.46 µM |  |
| O=C(NO)Nc1ccc(Cl)cc1 |  | 251 µM | inactive |
| O=C(/C=C/c1cccc(Br)c1)c1cccs1 |  |  | inactive |
| CN(C)CCSc1cccc(-c2cc(-c3cccc(SCCN(C)C)c3)nc(SCCN(C)C)n2)c1 | > 457 µM | 0.708 µM |  |
